From ChEMBL document CHEMBL1201862, “PubChem BioAssay data set” (2004)
Active and inactive are the calls of the source.

Legend:
Escherichia coli = test: microbe, parasite or virus in culture
[1] = target: T1, Peroxisome proliferator-activated receptor gamma/Nuclear receptor coactivator 1 (Homo sapiens, UniProt P37231); test: (§1) TR-FRET dose response biochemical High Throughput Screening assay for agonists of the steroid receptor coactivator 1 (SRC-1) recruitment by the peroxisome proliferator-activated receptor gamma (PPAR gamma): non-selective agonists. [Related pubchem assays (depositor defined):AID1300, AID1808, AID504735, AID631]; format: protein assay
[2] = target: T2, Peroxisome proliferator-activated receptor gamma/Nuclear receptor coactivator 3 (Homo sapiens, UniProt P37231); test: as §1, with “3 (SRC-3)” for “1 (SRC-1)”, “assays: 1301 (Confirmation screen.), 1048 (Primary screen.)]” for “assays (depositor defined):AID1300, AID1808, AID504735, AID631]”; format: functional
[3] = target: T3, Peroxisome proliferator-activated receptor gamma/Nuclear receptor coactivator 2 (Homo sapiens, UniProt P37231); test: TR-FRET dose response biochemical High Throughput Screening assay for agonists of the steroid receptor coactivator 2 (SRC-2) recruitment by the peroxisome proliferator-activated receptor gamma (PPAR gamma): non-selective agonists. [Related pubchem assays: 1297, 1032 ]; format: functional
[4] = target: T4, High affinity choline transporter 1 (Homo sapiens, UniProt Q9GZV3); test: human choline transporter blockers, potency – cell-based, 5-point CRC, membrane potential dye, dose response (AID 504840); format: functional
T4 sequence (Q9GZV3 whole entry): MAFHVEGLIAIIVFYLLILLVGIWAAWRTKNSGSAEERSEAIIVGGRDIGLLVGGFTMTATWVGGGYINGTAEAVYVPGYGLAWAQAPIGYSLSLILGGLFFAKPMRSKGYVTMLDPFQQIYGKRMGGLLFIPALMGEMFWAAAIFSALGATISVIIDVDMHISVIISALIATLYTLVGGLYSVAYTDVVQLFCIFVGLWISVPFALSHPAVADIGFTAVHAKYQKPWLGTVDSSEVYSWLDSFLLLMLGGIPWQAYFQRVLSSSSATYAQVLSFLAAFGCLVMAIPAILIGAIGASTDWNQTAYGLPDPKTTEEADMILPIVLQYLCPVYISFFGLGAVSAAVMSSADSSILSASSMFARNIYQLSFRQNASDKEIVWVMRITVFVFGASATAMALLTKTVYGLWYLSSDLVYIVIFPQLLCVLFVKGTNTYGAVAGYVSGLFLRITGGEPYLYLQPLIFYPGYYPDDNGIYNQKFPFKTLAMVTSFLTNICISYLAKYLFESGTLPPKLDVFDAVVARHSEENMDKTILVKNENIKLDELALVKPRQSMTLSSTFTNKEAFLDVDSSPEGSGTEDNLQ

[5] = target: T4, High affinity choline transporter 1; test: human choline transporter blockers, potency – cell-based, 10-point CRC, membrane potential dye, dose response (AID 588401); format: functional;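 also: membrane potential dye fluorescence of choline-evoked depolarization via CHT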
Bcl-2-related protein A1 = target: T5, Bcl-2-related protein A1 (Mus musculus, UniProt Q07440); format: functional;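 also: confirmatory dose–response counterscreen on Bfl-1, used to check hits from a UBC13 polyubiquitin inhibitor campaign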
T5 sequence (Q07440 whole entry): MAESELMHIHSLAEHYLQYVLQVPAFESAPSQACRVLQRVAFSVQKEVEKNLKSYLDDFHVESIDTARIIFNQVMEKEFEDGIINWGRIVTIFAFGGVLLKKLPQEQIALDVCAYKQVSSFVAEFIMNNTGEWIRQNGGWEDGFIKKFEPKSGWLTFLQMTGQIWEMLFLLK

[6] = target: T6, Ubiquitin-conjugating enzyme E2 N (Homo sapiens, UniProt P61088); format: functional
T6 sequence (P61088 whole entry): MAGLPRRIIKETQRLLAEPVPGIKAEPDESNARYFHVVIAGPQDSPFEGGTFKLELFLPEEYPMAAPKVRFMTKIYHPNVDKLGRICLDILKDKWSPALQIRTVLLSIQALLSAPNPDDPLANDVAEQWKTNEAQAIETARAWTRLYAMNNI

[7] = target: T6, Ubiquitin-conjugating enzyme E2 N; format: functional; remark: listed apart in the source
[8] = target: T7, Apoptotic protease-activating factor 1 (Homo sapiens, UniProt O14727); format: functional
T7 sequence (O14727 whole entry): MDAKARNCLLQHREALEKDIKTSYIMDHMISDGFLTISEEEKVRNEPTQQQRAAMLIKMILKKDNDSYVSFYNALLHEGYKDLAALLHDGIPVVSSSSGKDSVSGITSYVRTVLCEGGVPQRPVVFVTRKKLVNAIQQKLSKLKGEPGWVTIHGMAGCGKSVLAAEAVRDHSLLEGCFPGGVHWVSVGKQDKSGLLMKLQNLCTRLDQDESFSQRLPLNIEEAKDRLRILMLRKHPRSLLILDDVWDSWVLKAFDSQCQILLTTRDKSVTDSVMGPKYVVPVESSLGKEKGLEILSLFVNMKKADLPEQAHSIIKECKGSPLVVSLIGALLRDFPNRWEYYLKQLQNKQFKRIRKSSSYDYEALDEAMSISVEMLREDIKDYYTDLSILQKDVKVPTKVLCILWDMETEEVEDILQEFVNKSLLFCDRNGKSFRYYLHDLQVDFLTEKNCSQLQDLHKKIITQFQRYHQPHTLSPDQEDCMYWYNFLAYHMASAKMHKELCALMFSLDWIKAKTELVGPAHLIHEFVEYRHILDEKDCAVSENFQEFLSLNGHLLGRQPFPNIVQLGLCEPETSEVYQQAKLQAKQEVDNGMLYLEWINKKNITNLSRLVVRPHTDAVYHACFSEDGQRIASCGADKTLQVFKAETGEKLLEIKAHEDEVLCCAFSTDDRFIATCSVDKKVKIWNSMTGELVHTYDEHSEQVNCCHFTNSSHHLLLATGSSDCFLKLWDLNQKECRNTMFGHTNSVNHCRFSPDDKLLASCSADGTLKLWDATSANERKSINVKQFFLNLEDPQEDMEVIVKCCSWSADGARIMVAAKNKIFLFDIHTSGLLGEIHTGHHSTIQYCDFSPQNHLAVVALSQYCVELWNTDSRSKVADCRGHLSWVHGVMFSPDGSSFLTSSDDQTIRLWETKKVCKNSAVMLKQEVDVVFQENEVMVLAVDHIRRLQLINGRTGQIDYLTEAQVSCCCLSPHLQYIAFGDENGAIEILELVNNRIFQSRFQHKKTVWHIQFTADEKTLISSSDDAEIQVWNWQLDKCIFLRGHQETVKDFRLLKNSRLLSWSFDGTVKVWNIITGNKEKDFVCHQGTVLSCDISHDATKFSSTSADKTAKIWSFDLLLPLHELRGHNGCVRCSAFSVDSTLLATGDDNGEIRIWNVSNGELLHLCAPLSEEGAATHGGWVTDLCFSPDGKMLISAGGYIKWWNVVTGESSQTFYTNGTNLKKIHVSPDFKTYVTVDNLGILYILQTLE

[9] = target: 26S proteasome non-ATPase regulatory subunit 14 (Homo sapiens, UniProt O00487); test: inhibition of proteasome subunit RPN11 – biochemical, fluorescence polarization, uHTS hits, confirmation (AID 602368); format: functional
[10] = target: 72 kDa type IV collagenase (Homo sapiens, UniProt P08253); test: Dose Response validation of uHTS RPN11 inhibitor hits using a MMP-2 Fluorescence assay.; format: functional
Prothrombin = Prothrombin (Bos taurus, UniProt P00735); test: thrombin protease inhibitors – biochemical, fluorescence polarization, uHTS hits, dose response (AID 602369); format: functional
[11] = target: Ras and Rab interactor 1/Tyrosine-protein kinase ABL1 (Homo sapiens, UniProt P00519+Q13671); format: functional;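 also: biochemical TR-FRET dose-response test measuring inhibition of binding between Rin1 and Abl proteins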
[12] = test system: Streptococcus sp. 'group A'; test: Streptococcus pyogenes SK(-)GAS viability under kanamycin – luminescence, BacTiterGlo, confirmation, counter-screen for streptokinase expression inhibitor project, dose response (AID 1900); format: functional, organism-based
Streptococcus = test: GAS UMAA2166 growth inhibition – luminescence, BacTiterGlo, counter-screen for streptokinase expression inhibitor project, dose response (AID 1915); format: functional, organism-based;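 also: potency for reduction of bacterial viability or growth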
Estrogen receptor beta = Estrogen receptor beta (Homo sapiens, UniProt Q92731);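 also: recombinant ER-beta bound to coactivator SRC1 peptide in presence of estradiol agonist; inhibitors block coactivator peptide binding and lower the FRET signal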
[13] = target: DNA repair and recombination protein RAD54-like (Homo sapiens, UniProt Q92698); test: RAD54 Holliday junction migration blockers – biochemical, fluorescence, cherry-picked samples, dose series, confirmation (AID 651657); format: functional
[14] = target: T3, Peroxisome proliferator-activated receptor gamma/Nuclear receptor coactivator 2; format: functional
[15] = target: T1, Peroxisome proliferator-activated receptor gamma/Nuclear receptor coactivator 1; format: functional
[16] = target: T2, Peroxisome proliferator-activated receptor gamma/Nuclear receptor coactivator 3; format: functional
[17] = target: Heat shock protein HSP 90-alpha (Homo sapiens, UniProt P07900); format: functional, organism-based
H9c2 = test: cells; format: functional, cell-based; conditions: Rattus norvegicus, H9c2, Myocardium;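 also: confirmatory concentration-response retest of ultra-high-throughput screening hits for modulation of myocardial damage; cell death induced by hydrogen peroxide oxidative stress; compound pretreatment for 60 min then peroxide exposure for 2 h; potency is for protecting the cells against peroxide damage rather than for killing them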
[18] = intracellular Trypanosoma cruzi inhibitors in host cells – cell-based, plate reader, cherry-pick samples, set 3, dose response (AID 651818); format: functional;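 also: compounds incubated with infected cells for about four days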
[19] = target: T8, Long-chain-fatty-acid--AMP ligase FadD28 (Mycobacterium tuberculosis, UniProt P9WQ59); test: Fluorescence polarization aasay to screen for inhibitors that compete for the binding of FadD28 to a bisubstrate Measured in Biochemical System Using Plate Reader - 2147-01_Inhibitor_Dose_CherryPick_Activity.; format: functional, Mycobacterium tuberculosis H37Rv
T8 sequence (P9WQ59 whole entry): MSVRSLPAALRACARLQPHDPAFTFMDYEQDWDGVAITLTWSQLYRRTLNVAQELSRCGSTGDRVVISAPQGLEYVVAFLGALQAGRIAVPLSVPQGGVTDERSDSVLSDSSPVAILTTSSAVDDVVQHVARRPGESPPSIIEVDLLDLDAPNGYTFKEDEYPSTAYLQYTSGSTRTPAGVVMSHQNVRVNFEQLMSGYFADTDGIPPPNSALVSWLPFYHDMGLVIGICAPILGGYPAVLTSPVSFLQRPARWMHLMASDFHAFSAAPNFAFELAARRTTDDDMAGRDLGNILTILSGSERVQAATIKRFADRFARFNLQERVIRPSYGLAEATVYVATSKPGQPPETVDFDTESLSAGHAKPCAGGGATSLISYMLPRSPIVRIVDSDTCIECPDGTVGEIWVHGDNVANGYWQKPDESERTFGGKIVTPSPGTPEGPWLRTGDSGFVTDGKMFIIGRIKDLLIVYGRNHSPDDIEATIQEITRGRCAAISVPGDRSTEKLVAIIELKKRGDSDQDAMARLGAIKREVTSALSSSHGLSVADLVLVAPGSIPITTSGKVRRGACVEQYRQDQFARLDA

T3 sequence (P37231 whole entry): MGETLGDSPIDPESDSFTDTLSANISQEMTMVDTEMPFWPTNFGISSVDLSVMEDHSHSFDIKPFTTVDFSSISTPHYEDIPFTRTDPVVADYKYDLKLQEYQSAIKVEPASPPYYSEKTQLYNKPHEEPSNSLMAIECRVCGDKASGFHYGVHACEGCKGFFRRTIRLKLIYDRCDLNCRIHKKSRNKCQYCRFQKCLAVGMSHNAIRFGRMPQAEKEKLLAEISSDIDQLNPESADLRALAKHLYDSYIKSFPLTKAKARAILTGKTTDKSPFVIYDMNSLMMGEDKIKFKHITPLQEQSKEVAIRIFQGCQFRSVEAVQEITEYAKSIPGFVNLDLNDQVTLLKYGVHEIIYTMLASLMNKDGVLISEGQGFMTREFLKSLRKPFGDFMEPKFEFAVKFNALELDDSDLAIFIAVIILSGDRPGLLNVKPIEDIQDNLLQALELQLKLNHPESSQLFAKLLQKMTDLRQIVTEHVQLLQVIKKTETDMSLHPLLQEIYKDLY
T3 sequence (Q15596 whole entry, further chain): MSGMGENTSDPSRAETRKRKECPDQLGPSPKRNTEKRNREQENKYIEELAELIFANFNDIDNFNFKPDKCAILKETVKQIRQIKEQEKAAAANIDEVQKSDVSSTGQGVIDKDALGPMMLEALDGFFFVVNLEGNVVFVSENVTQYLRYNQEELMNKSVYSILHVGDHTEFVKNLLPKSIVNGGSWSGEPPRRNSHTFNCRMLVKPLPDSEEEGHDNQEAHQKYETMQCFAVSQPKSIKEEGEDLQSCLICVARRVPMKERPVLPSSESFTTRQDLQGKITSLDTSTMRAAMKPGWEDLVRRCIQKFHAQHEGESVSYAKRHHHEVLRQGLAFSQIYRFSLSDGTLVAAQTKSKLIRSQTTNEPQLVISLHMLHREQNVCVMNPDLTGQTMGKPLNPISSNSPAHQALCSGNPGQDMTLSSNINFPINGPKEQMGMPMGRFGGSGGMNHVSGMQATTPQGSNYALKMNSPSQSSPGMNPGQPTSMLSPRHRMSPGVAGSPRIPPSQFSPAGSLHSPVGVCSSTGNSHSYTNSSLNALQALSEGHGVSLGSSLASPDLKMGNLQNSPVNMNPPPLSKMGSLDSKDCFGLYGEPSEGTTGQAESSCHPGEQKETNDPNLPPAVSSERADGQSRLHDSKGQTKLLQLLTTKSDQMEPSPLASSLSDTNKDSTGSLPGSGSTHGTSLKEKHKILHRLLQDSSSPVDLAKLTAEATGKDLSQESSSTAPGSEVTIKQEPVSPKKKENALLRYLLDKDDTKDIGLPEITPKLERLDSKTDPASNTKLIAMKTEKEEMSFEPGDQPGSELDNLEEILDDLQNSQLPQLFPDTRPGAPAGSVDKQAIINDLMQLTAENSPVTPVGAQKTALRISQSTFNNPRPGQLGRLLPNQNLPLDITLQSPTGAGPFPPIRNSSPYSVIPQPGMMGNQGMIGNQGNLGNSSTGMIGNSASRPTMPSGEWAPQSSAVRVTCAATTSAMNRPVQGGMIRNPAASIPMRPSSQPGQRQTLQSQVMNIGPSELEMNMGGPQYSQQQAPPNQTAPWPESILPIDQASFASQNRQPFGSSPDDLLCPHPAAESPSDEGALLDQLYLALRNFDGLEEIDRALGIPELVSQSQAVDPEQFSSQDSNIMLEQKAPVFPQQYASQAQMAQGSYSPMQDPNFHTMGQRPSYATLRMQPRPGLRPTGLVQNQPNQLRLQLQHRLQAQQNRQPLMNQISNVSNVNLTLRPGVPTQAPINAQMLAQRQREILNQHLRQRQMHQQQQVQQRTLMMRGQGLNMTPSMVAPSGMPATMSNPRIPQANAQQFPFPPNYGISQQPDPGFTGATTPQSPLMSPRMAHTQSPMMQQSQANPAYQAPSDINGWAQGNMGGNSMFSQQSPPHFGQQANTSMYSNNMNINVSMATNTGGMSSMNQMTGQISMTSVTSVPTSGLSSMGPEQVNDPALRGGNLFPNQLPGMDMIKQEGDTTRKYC
T1 sequence (P37231 whole entry): as the sequence (P37231 whole entry) above
T1 sequence (Q15788 whole entry, further chain): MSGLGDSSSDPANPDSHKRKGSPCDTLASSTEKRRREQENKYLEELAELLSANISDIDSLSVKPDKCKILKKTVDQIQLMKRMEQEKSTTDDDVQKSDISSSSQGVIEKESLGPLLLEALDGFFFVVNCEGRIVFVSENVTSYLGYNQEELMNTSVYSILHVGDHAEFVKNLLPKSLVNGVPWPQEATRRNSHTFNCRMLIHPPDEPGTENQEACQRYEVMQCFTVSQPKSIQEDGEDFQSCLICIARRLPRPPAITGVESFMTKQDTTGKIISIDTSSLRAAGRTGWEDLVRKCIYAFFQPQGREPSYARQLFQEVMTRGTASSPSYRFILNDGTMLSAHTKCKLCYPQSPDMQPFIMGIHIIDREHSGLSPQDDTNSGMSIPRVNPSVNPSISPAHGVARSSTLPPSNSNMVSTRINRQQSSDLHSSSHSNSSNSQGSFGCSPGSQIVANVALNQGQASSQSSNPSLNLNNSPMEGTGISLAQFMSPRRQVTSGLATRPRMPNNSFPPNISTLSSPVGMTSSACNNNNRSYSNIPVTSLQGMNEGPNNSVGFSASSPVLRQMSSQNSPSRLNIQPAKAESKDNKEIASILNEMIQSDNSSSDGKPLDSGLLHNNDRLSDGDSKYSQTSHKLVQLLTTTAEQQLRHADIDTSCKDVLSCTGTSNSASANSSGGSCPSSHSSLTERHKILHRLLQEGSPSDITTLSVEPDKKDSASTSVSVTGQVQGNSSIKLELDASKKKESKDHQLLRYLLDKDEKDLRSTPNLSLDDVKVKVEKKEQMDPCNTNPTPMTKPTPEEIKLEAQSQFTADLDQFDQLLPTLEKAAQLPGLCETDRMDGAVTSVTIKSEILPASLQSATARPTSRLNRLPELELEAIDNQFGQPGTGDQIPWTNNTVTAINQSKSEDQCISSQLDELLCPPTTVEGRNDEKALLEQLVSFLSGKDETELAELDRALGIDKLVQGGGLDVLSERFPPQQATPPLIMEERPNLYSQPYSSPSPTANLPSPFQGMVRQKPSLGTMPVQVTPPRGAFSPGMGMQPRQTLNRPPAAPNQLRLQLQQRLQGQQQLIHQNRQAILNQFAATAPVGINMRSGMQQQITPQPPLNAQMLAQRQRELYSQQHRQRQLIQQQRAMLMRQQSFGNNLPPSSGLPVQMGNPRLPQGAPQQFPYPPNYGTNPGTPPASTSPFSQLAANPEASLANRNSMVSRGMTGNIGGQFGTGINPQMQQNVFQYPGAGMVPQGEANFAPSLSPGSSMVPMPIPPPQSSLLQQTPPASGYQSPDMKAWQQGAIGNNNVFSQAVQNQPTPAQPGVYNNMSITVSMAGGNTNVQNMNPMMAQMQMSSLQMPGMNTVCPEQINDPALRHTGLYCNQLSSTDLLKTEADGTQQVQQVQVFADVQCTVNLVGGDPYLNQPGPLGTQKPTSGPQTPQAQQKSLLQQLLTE
Chain of 72 kDa type IV collagenase (P08253 whole entry): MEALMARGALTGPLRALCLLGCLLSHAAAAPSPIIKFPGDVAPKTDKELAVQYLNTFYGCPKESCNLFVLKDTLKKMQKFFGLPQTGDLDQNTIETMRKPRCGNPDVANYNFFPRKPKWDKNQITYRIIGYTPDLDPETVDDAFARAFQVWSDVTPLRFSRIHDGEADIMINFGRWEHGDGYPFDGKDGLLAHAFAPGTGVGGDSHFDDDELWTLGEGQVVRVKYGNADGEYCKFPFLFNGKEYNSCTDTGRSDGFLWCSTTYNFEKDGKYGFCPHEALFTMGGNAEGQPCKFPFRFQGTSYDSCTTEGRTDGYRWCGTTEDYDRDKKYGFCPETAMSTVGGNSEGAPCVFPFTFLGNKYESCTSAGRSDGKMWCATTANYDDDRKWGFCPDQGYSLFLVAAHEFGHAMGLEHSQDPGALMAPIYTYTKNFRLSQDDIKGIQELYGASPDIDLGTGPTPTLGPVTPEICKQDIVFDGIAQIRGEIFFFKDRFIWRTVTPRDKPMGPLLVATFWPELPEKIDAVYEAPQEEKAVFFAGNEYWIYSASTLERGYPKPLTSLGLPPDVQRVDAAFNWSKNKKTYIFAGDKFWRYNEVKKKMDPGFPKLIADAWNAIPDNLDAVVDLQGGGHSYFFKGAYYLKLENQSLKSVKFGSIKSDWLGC
Chain of 26S proteasome non-ATPase regulatory subunit 14 (O00487 whole entry): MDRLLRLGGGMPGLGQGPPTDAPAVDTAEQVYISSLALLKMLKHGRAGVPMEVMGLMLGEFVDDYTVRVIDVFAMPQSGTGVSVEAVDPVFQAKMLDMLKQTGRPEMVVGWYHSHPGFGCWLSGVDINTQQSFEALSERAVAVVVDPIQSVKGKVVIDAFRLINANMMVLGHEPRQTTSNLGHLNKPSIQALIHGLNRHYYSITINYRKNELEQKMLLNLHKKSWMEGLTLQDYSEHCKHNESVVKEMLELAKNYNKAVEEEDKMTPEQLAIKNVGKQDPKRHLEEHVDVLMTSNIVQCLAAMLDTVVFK

SMILES: COc1ccc(C(=O)NC2(C(F)(F)F)C(=O)Nc3c2c(=O)[nH]c(=O)n3CCc2ccc(OC)c(OC)c2)cc1 (configuration not stated)
- AC50 (Escherichia coli): 25.4 µM (active)

SMILES: O=C(O)COc1ccc2c(c1Cl)N=S=N2
- EC50 [1]: 9.32 µM (active)
- EC50 [2]: 59 µM (not active)
- EC50 [3]: 12.5 µM (not active)

SMILES: Cc1ccc(C[S+]([O-])Cc2ccc(C(=O)NC3CCCC(C)C3C)o2)cc1 (configuration not stated)
- IC50 [4]: 9.8 µM (active)
- IC50 [5]: 7.23 µM (active)

SMILES: COc1ccc(NS(=O)(=O)c2ccc(C)c(NC(=O)CN3C(=O)NC4(CCCC4)C3=O)c2)cc1
- IC50 (Bcl-2-related protein A1): > 20 µM (inactive)
- IC50 [6]: 16.3 µM (active)
- IC50 [7]: > 20 µM (inactive)
- IC50 [8]: 23.2 µM (active)
- IC50 [9]: 3.31 µM (active)
- IC50 [10]: > 100 µM (inactive)
- IC50 (Prothrombin): 79.2 µM (active)

SMILES: COc1ccc2oc(C(=O)NCC(c3ccco3)N(C)C)c(C)c2c1 (configuration not stated)
- IC50 [11]: 3.82 µM (active)

SMILES: CCn1cc(C(=O)O)c(=O)c2cc(F)c(N3CCN(C(S)=Nc4ccc(OC)cc4)CC3)cc21
- EC50 [12]: 2.27 µM (active)
- EC50 (Streptococcus): 7.71 µM (active)
- AC50 (Escherichia coli): 2.52 µM (active)

SMILES: CCN(CC)CCCn1c2c(c(SCC(=O)Nc3ccc(OC(F)(F)F)cc3)nc1=O)CCC2
- IC50 [4]: 7.92 µM (active)
- IC50 [5]: 6.21 µM (active)

SMILES: COCC(=O)Nc1nnc(Cc2ccc(OC)cc2)s1
- IC50 (Estrogen receptor beta): > 50 µM (not active)
- AC50 (Escherichia coli): 111 µM (active)

SMILES: Cn1c(=O)cc(SCC(=O)Nc2ccc3c(c2)OCO3)c2ccccc21
- EC50 [1]: > 79.4 µM (inactive)
- EC50 [2]: > 79.4 µM (not active)
- EC50 [3]: > 79.4 µM (not active)

SMILES: NNC(=O)c1oc2nc(-c3cccs3)cc(-c3ccco3)c2c1N
- AC50 [13]: 16.6 µM (active)

SMILES: NS(=O)(=O)c1ccc(Nc2ccc([N+](=O)[O-])c3nonc23)cc1
- IC50 [9]: 39.7 µM (active)
- IC50 [10]: > 100 µM (inactive)
- IC50 (Prothrombin): 36.1 µM (active)

SMILES: O=C(Cc1ccc(NC(=O)C2CCN(C(=O)C3CCCC3)CC2)cc1)Nc1cccc(C(=O)N2CCCCC2)c1
- IC50 [11]: 29.2 µM (inactive)

SMILES: Oc1c(Br)cc(Br)cc1/C=N/Cc1ccc(F)cc1
- EC50 [14]: 38.3 µM (not active)
- EC50 [15]: > 79.4 µM (not active)
- EC50 [16]: > 79.4 µM (not active)
- AC50 [17]: 6.15 µM (active)
- IC50 [4]: 9.21 µM (active)
- IC50 (H9c2): > 79 µM (inactive)
- IC50 [5]: 3.64 µM (active)

SMILES: C[C@@H]1CN([C@@H](C)CO)C(=O)c2cccc(NC(=O)Nc3ccc4c(c3)OCO4)c2O[C@H]1CN(C)Cc1ccc(Oc2ccccc2)cc1
- AC50 [18]: 1.92 µM (active)

SMILES: C[C@@H]1CN([C@H](C)CO)C(=O)Cc2cc(NS(=O)(=O)c3ccccc3)ccc2O[C@H]1CN(C)Cc1ccc(Cl)c(Cl)c1
- AC50 [18]: 3.13 µM (active)

SMILES: Cc1nc(N)sc1C(=O)N/N=C/c1c[nH]c2ccccc12
- IC50 (Bcl-2-related protein A1): > 20 µM (inactive)
- IC50 [6]: 1.33 µM (active)
- IC50 [7]: 1.25 µM (active)
- AC50 [19]: 55.1 µM (active)
